Here are results for 10 compounds from ChEMBL document CHEMBL1201862, “PubChem BioAssay data set” (2004).

Each structure is given as a SMILES string.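 96-well plates; 48 h exposure; 5 concentrations. Endpoints by linear interpolation between flanking doses. Not reached: highest tested concentration assigned. At the GI50, growth is halved.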 Activity calls are given as the source filed them. Cut-off read from the data, not from the text of the source: active = GI50 up to about 1.1 µM and inactive = higher. Some results are limits rather than exact numbers.

What all share (assay): growth of human tumour cells (NCI), 48 h
Assay [1] relates to A498.
The subject of assay [2] is Hs-578T.
Assay [3] deals with IGROV-1.
The test system of assay [4] is KM12.
Assay [5] concerns MDA-MB-231.
Assay [6] deals with MDA-MB-435.
Assay [7] concerns MOLT-4.
The test system of assay [8] is NCI-H226.
Assay [9] relates to NCI-H23.
Assay [10] has as its system NCI/ADR-RES.
The subject of assay [11] is OVCAR-5.
Assay [12] deals with OVCAR-8.
Assay [13] relates to PC-3.
The subject of assay [14] is SF-268.
The test system of assay [15] is SK-MEL-5.
Assay [16] concerns SN12C.
The subject of assay [17] is SNB-19.
Assay [18] concerns SNB-75.
Assay [19] deals with SR.
Assay [20] has as its system U-251.

Regarding `Cc1ccc2c(c1)OC1Nc3ccccc3C1=C2O` (stereo not given), the GI50 in assay [1] is 15.5 µM (inactive); in [2] it was 73.8 µM (inactive); in assay [3], 29.9 µM (inactive); in assay [4], 26.4 µM (inactive); in [5], 20.6 µM (inactive); in [6], 26.2 µM (inactive). Also, the GI50 in [7] is 32.1 µM (inactive); in assay [8], 20.7 µM (inactive); in assay [9], 23.7 µM (inactive); in assay [10], 20.9 µM (inactive); in [11] it was 32.6 µM (inactive); in [12], 35 µM (inactive). For the same compound, the GI50 in assay [13] is 16.3 µM (inactive); in assay [14] it was 40 µM (inactive); in assay [15] it was 16.4 µM (inactive); in [16] it was 27.3 µM (inactive); in [17], 31.6 µM (inactive); in assay [18], 23.2 µM (inactive). Moreover, the GI50 was 31.2 µM (inactive) in [19] and 20.4 µM (inactive) in assay [20].
Consider `COc1ccccc1C1SCC(=O)N1c1ccc(-n2c(-c3ccccc3)nc3ccccc3c2=O)cc1` (stereo not given), for which the GI50 in assay [1] is 36 µM (inactive); in assay [2] it was 39.4 µM (inactive); in [3], 46.6 µM (inactive); in assay [4] it was 29.9 µM (inactive); in assay [5], 47.6 µM (inactive); in assay [6] it was 53.8 µM (inactive). In addition, the GI50 in assay [7] was 28.8 µM (inactive); in assay [8], 74.1 µM (inactive); in [9], > 100 µM (inactive); in assay [10], 19.3 µM (inactive); in [11], > 100 µM (inactive); in assay [12], 60.4 µM (inactive). Also, the GI50 is 80.4 µM (inactive) in assay [13]; 78.2 µM (inactive) in [14]; 37.5 µM (inactive) in assay [15]; > 100 µM (inactive) in assay [16]; > 100 µM (inactive) in assay [17]; 3.51 µM (inactive) in assay [18]. In addition, the GI50 in assay [19] is 81.7 µM (inactive); in assay [20] it was 73.1 µM (inactive).
In the case of `CCC1c2[nH]c3ccccc3c2C[C@H]2C(=O)NC(CCC(=O)OC(C)(C)C)C(=O)N12` (stereo not given in full), the GI50 in assay [1] is 89.7 µM (inactive); in assay [2] it was 32.7 µM (inactive); in [3], 53.8 µM (inactive); in assay [4] it was 35.1 µM (inactive); in [5], 66.4 µM (inactive); in [6] it was 49.5 µM (inactive). The GI50 in assay [7] was 35.3 µM (inactive); in assay [8] it was > 100 µM (inactive); in assay [9], 68.7 µM (inactive); in assay [10] it was 62.5 µM (inactive); in assay [11], 62.1 µM (inactive); in assay [12] it was 48.4 µM (inactive). In addition, the GI50 is 33.7 µM (inactive) in [13]; 37.4 µM (inactive) in assay [14]; 39.4 µM (inactive) in assay [15]; 39.4 µM (inactive) in assay [16]; 73.5 µM (inactive) in assay [17]; 41.7 µM (inactive) in [19]. In assay [20], the GI50 is 56.6 µM (inactive).
Regarding `COc1c(C(=O)/C(=N/Nc2ccc(C(=O)O)cc2)C(C)=O)c(O)cc2occc12`, the GI50 is > 100 µM (inactive) in assay [2]; > 100 µM (inactive) in assay [3]; 55 µM (inactive) in assay [4]; > 100 µM (inactive) in assay [5]; 46.7 µM (inactive) in assay [6]; > 100 µM (inactive) in assay [7]. Moreover, the GI50 in assay [8], in assay [9], in assay [10], in assay [11], in assay [12] and in assay [13] was > 100 µM (inactive) each time. Also, the GI50 in assay [14] was > 100 µM (inactive); in assay [15], 28.8 µM (inactive); in assay [16] it was > 100 µM (inactive); in assay [17], > 100 µM (inactive); in assay [18], 50.7 µM (inactive); in assay [19], 68.9 µM (inactive). In addition, in assay [20], the GI50 was > 100 µM (inactive).
Consider `CC[C@@H]1CSC(/C=C/C2OC3OC(C)(C)OC3C3OC(C)(C)OC23)=N1` (stereo not given in full), for which the GI50 in assay [2] was 17.9 µM (inactive); in [3], 10.3 µM (inactive); in assay [4] it was 13.6 µM (inactive); in [5], 12.4 µM (inactive); in assay [6], 4.15 µM (inactive); in assay [7], 4.54 µM (inactive). In addition, the GI50 in assay [8] was 16.4 µM (inactive); in assay [9], 5.05 µM (inactive); in assay [10], 12.7 µM (inactive); in [11], 7.91 µM (inactive); in assay [12], 4.49 µM (inactive); in [13], 8.2 µM (inactive). Moreover, the GI50 was 6.03 µM (inactive) in assay [14]; 6.67 µM (inactive) in [15]; 11.1 µM (inactive) in [16]; 20.4 µM (inactive) in assay [17]; 15 µM (inactive) in [18]; 3.89 µM (inactive) in [19]. The GI50 in assay [20] is 13.6 µM (inactive).
As to `CC(/C=N/N=C1NCCCN1)=N\N=C1NCCCN1`, the GI50 in assay [2], in [3], in assay [4], in assay [5], in assay [6] and in [7] was > 100 µM (inactive) each time. Further, the GI50 in [8], in assay [9], in [10], in assay [11], in assay [12] and in assay [13] was > 100 µM (inactive) each time. Further, the GI50 in assay [14], in assay [15], in assay [16], in [17], in assay [18] and in assay [19] was > 100 µM (inactive) each time. Besides, the GI50 in assay [20] was > 100 µM (inactive).
Regarding `CC(c1ccccc1)n1c2ccccc2c2c(N)ncnc21` (stereo not given), the GI50 in assay [1] is 15.7 µM (inactive); in assay [2], 18 µM (inactive); in assay [3], 18.9 µM (inactive); in [5], 19.1 µM (inactive); in assay [6], 16.9 µM (inactive); in assay [7] it was 23 µM (inactive). The GI50 in assay [9] is 20.4 µM (inactive); in assay [10], 20.4 µM (inactive); in assay [11], 18.2 µM (inactive); in assay [12], 17.1 µM (inactive); in assay [13], 17.7 µM (inactive); in assay [14] it was 21.1 µM (inactive). The GI50 is 19.5 µM (inactive) in assay [15]; 16.5 µM (inactive) in assay [17]; 1.4 µM (inactive) in assay [18]; 24.7 µM (inactive) in assay [19]; 16.7 µM (inactive) in assay [20].
For the compound `O=C(COc1ccc(OCC(=O)N/N=C/c2ccc(-c3ccc(Cl)cc3Cl)o2)c(Cl)c1)N/N=C/c1ccc(-c2ccc(Cl)cc2Cl)o1`, the GI50 is 49.3 µM (inactive) in [1]; 80.2 µM (inactive) in assay [2]; > 100 µM (inactive) in [3]; > 100 µM (inactive) in assay [4]; 35 µM (inactive) in assay [5]; 24.1 µM (inactive) in [6]. The GI50 in assay [7] was 0.0298 µM (active); in [8], 45.7 µM (inactive); in assay [9] it was > 100 µM (inactive); in assay [10], 12.3 µM (inactive); in [11], > 100 µM (inactive); in assay [12] it was 55.3 µM (inactive). Moreover, the GI50 in assay [13] is 33.7 µM (inactive); in assay [14] it was 41.6 µM (inactive); in assay [15], > 100 µM (inactive); in assay [16] it was > 100 µM (inactive); in assay [17], > 100 µM (inactive); in [19], 0.342 µM (active). In assay [20], the GI50 was 46.7 µM (inactive).
On to `COc1c2occc2c(OC)c2c(=O)c(S(=O)(=O)NC(=O)Nc3ccc(Cl)cc3)coc12`, for which the GI50 in assay [1], in assay [2], in assay [3], in assay [4], in assay [5] and in assay [6] was > 10 µM (inactive) throughout. Also, the GI50 in assay [7], in [8], in [9], in assay [10], in assay [11] and in assay [12] was > 10 µM (inactive) each time. Besides, the GI50 in assay [13], in [14], in assay [15], in [16], in assay [17] and in [19] was > 10 µM (inactive) in each case. Moreover, the GI50 in assay [20] is > 10 µM (inactive).
For the compound `O=C1c2ccccc2C(=O)N1C(=S)c1ccccc1`, the GI50 in assay [2], in [3], in assay [4], in assay [5], in [6] and in assay [7] was > 100 µM (inactive) each time. For the same compound, the GI50 in assay [8], in [9], in assay [10], in assay [11], in assay [12] and in assay [13] was > 100 µM (inactive) each time. In addition, the GI50 in [14], in assay [15], in [16], in assay [17], in assay [18] and in [19] was > 100 µM (inactive) in each case. In addition, in assay [20], the GI50 was > 100 µM (inactive).
